Data taken from US8207188B2, “Treatment of diseases modulated by a H4 receptor agonist” (priority 2006, dated 2012).
“Also recorded” adds a separate entry of the source.

Assays:
[1] = Reintroduction of causal food allergen in food allergy patients; format: in vivo, human; conditions: baseline patients treated with one drug alone
Excerpt: Allergens tested came from either […], or ALLERBIO.
The direct test with the Nutella® was strongly positive for allergy. This patient was hospitalized in two occasions for the same dramatic allergic reaction to Nutella® spread. Furthermore, the patient presented allergies to pneumoallergens.
Continuation of the above treatment for over 8 months afforded reversal of allergic and digestive symptoms due to food allergy.
The patient under study had survived two cases of anaphylactic shock due to ingestion of shrimps. […] Later the patient was able to ingest five shrimps without any local signs and no global reaction.
Baseline patients had signs of food allergies and the food allergy symptoms were not adequately managed with an H1 antagonist and cromoglycate. A group of 15 patients presenting signs of food allergies is tested with allergens such as the following: peanut, milk, tomato, potato, flour of wheat, soybean, fish, and shrimp. Allergens tested came from either […], or ALLERBIO.
All patients had history of hospitalization and reactions such as Quincke's edema and asthma crisis. Most of the causal allergens were peanut (six patients), egg (four patients) and soybean (five patients) of them (with other several positive food allergens at different degrees of reaction). […]

[2] = test system: human TF1 cells that express H4R; experiment: TF1 cell proliferation assay (GM-CSF promoted); format: cell-based; conditions: Homo sapiens, TF-1, 72 h; 10 μM, 3 days, three separate assays (n=3)
Procedure: Tritoqualine was tested on a cell proliferation assay using human TF1 cells that express H4R.
TF1 cell proliferation is promoted using granulocyte/macrophage colony-stimulating factor (GM-CSF). In this cell proliferation model H4R agonists inhibit cell proliferation. Clobenpropit (CB), a known H4R agonist at a dose of 10^−5M (10 μM) was used as a known cell proliferation inhibition control. […] Each experiment used 100,000 TF1 cells/mL incubated for three days with GM-CSF (10 ng/mL). After addition of TRQ in the range of 10^−5M (10 μM) to 10^−7 M (0.1 μM), and incubation for 3 days, cell proliferation was assessed and compared to that of 10 μM CB.

[3] = test system: Mouse medullary cells C57B1/6 expressing H4R; experiment: Proliferation of Colony Forming Cells (CFC) in semi-solid media; format: cell-based; conditions: 10 μM, 7 days
Procedure: Using the assay described in Example 15, above, the effect of TRQ or CB on cells expressing H4R was tested. Mouse medullary cells C57B1/6 expressing H4R (50,000 cells/Petri dish) were incubated in a semi-solid media with haematopoietic growth factors (IL-3: 10 ng/ml) for 7 days with TRQ or CB.
Using the assay described in Example 15, above, the effect of TRQ or CB on cells expressing H4R was tested. Mouse medullary cells C57B1/6 expressing H4R (50,000 cells/Petri dish) were incubated in a semi-solid media with haematopoietic growth factors (IL-3: 10 ng/ml) for 7 days with a TRQ (racemic mixture of RR and SS isomers at 1 μM and 10 μM concentration); TRQ isomer E1 (10 μM concentration); TRQ isomer E2 (10 μM concentration) and CB (10 μM concentration).

[4] = test system: Mouse medullary cells C57B1/6 expressing H4R; experiment: Percentage of cells at G0/G1 phase, TRQ racemate and enantiomers with and without CB (Example 21); format: cell-based; conditions: 10 μM, compared to control (GF only)
Procedure: This experiment was conducted at two concentrations for all TRQ molecules (10 μM and 1 μM) in the presence and absence of CB (10 μM).
Using the assay described in Example 15, above, the effect of TRQ or CB on cells expressing H4R was tested. Mouse medullary cells C57B1/6 expressing H4R (50,000 cells/Petri dish) were incubated in a semi-solid media with haematopoietic growth factors such as IL-3 (10 ng/ml) for 7 days with a TRQ (racemic mixture of RR and SS isomers at 1 μM and 10 μM concentration); purified TRQ isomer E1 (10 μM and 1 μM concentration); purified TRQ isomer E2 (10 μM and 1 μM concentration) and CB (10 μM concentration). […] Similar results were shown with the purified TRQ isomers. In each experiment cells were incubated in the presence of growth factors (GF, FIG. 15).

[5] = test system: ckit positive hematopoietic progenitor cells; experiment: ckit receptor expression on hematopoietic progenitor cells; format: cell-based; conditions: 10 μM
Excerpt: In FIG. 16 the reference to CB-5, E1-5, and E2-5 is the same as above. CKit is a receptor on the surface of hematopoetic cells. Quantifying the ckit receptor is a measure of the differentiation from the progenitor state to the hematopoetic cell state.

[6] = target: T1, H4R (Mus musculus, UniProt Q91ZY2); experiment: Cell cycle status after H4R silencing with siRNA; format: cell-based; conditions: 10 μM; H4R siRNA transfected c-kit+ cells
T1 construct: endogenous in cells; host or cells: freshly sorted c-kit+ haematopoietic progenitor cells
T1 sequence (Q91ZY2 1-391): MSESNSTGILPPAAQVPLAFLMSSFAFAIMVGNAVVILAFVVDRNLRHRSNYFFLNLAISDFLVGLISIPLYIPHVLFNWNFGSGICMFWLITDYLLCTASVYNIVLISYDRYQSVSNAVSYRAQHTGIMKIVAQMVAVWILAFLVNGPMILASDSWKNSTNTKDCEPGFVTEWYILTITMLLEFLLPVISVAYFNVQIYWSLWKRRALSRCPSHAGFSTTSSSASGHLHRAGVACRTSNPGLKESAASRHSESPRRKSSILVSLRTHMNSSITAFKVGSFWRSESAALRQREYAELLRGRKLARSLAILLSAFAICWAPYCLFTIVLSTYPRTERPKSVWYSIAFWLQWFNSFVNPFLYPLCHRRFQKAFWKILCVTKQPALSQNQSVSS
Procedure: H4R silencing was performed with freshly sorted c-kit^+ cells. For transfection, 3 μl of HiPerFect reagent (Qiagen; Courtaboeuf, France) and 4 μl ([…]) of human and 8 μl (80 pmol) of murine H4R siRNA, scrambled FITC-labeled or unconjugated control siRNAs (all from Santa Cruz Biotechnology) were incubated in 50 μl x-vivo medium (Cambrex; East Rutherford, N.J.) for 20 min at room temperature. The mixture was then added to 50 μl of cell suspension at a final concentration of 10^6 cells/ml and incubated for 20 h, when transfection efficiency was verified with scrambled FITC-conjugated siRNA. Cells were then centrifuged and resuspended at a concentration of 10^5 cells/ml in StemSpan medium with growth factor cocktail. The extinction of H4R protein expression was ascertained by FACS analysis after 24 h. After 3 days of culture with or without tritoqualine (10 μM) or Clobenpropit (10 μM) cells were counted and their viability was assessed by trypan blue exclusion. The cell cycle status was assessed after an overnight incubation.

[7] = test system: hematopoietic progenitor cells; experiment: CFU of hematopoietic progenitor cells in the presence of Ara-C; format: cell-based
Excerpt: Ara-C is a chemotherapeutic agent that kills cancel cells (or actively dividing cells).

Compound	management of food allergy symptoms with the single drug [1]	inhibition at 10 µM [2] [%]	inhibition of proliferation of CFC ([3]; Example 16, IL-3 10 ng/ml)	inhibitory activity of cell proliferation (CFC) ([3]; Example 20)	percentage of cells at the G0/G1 phase / inhibitory activity of cell proliferation [4]	ckit expression [5]	activity inhibiting the cell cycle at the G0/G1 phase after H4R siRNA [6]	protection of cells / cell CFU in the presence of Ara-C [7]
CC(C)(O)c1ccccc1CC[C@@H](SCC1(CC(=O)O)CC1)c1cccc(/C=C/c2ccc3ccc(Cl)cc3n2)c1 [Montelukast®]	did not yield satisfactory management							
NC(=NCc1ccc(Cl)cc1)SCCCc1cnc[nH]1 [CB, N′-[(4-chlorophenyl)methyl]-1-[3-(3H-imidazol-4-yl)propylthio]formamidine]		23	inhibits the proliferation of CFC	inhibits the proliferation of CFC	increases the percentage of cells at the G0/G1 phase; also recorded: slightly better inhibitory activity of cell proliferation compared to that of Racemic TRQ	inhibits of ckit expression	reversed	provides protection to the cells
